From ChEMBL document CHEMBL3045324, “5-phenyl-1-benzofuran-2-yl derivatives: synthesis, antimicrobial, and antioxidant activity” (2013)
Values after ≈ are worked out from the molar mass of the structure shown. Active and inactive are the calls of the source. The calls are words filed in the database; no cut-off is given here.

Columns and labels:
[1] = tested on: Bacillus subtilis; assay: Antibacterial activity against Bacillus subtilis NCTC 10400 assessed as growth inhibition at 50 mg/mL after 24 hr; format: functional; details: for zone of inhibition at 50000 µg/mL: NCTC 10400, 24 h, read-out: IZ
[2] = tested on: Escherichia coli; assay: Antibacterial activity against Escherichia coli NCTC 12923 assessed as growth inhibition at 50 mg/mL after 24 hr; format: functional; details: for zone of inhibition at 50000 µg/mL: NCTC 12923, 24 h, read-out: IZ
[3] = tested on: Bacillus subtilis; assay: Antibacterial activity against Bacillus subtilis NCTC 10400 assessed as growth inhibition after 24 hr; format: functional; details: NCTC 10400, 24 h
[4] = tested on: Candida albicans; assay: Antifungal activity against Candida albicans NCPF 3179 assessed as growth inhibition after 3 days; format: functional; details: NCPF 3179, 72 h
[5] = tested on: Staphylococcus aureus; assay: Antibacterial activity against Staphylococcus aureus NCTC 10788 assessed as growth inhibition at 50 mg/mL after 24 hr; format: functional; details: for zone of inhibition at 50000 µg/mL: NCTC 10788, 24 h, read-out: IZ
[6] = tested on: Escherichia coli; assay: Antibacterial activity against Escherichia coli NCTC 12923 assessed as growth inhibition at 1 to 50 mg/mL after 24 hr; format: functional, organism-based
[7] = tested on: Radical scavenging activity; assay: Antioxidant activity assessed as DPPH radical scavenging activity at 1 mg/mL after 15 min UV-vis spectrophotometric analysis relative to control; format: functional
[8] = tested on: Staphylococcus aureus; assay: Antibacterial activity against Staphylococcus aureus NCTC 10788 assessed as growth inhibition after 24 hr; format: functional; details: NCTC 10788, 24 h
[9] = tested on: Candida albicans; assay: Antifungal activity against Candida albicans NCPF 3179 assessed as growth inhibition at 50 mg/mL after 3 days; format: functional; details: NCPF 3179, 72 h, read-out: IZ
[10] = tested on: Candida albicans; assay: Antifungal activity against Candida albicans NCPF 3179 assessed as growth inhibition at 1 to 50 mg/mL after 3 days; format: functional, organism-based
[11] = tested on: Staphylococcus aureus; assay: Antibacterial activity against Staphylococcus aureus NCTC 10788 assessed as growth inhibition at 1 to 50 mg/mL after 24 hr; format: functional, organism-based
[12] = tested on: Bacillus subtilis; assay: Antibacterial activity against Bacillus subtilis NCTC 10400 assessed as growth inhibition at 1 to 50 mg/mL after 24 hr; format: functional, organism-based
[13] = tested on: Escherichia coli; assay: Antibacterial activity against Escherichia coli NCTC 12923 assessed as growth inhibition after 24 hr; format: functional; details: NCTC 12923, 24 h

Compound	growth inhibition (GI) [6]	Activity [7]	growth inhibition (GI) [10]	growth inhibition (GI) [11]	growth inhibition (GI) [12]	other results
O=C(c1ccc(-c2ccccc2)cc1)c1cc2cc(-c3ccccc3)ccc2o1	inactive	7.3%				zone of inhibition at 50000 µg/mL [1]: 22 mm; zone of inhibition at 50000 µg/mL [2]: 0 mm; MIC [3]: 10 µg/mL (≈ 26.7 µM); MIC [4]: 10 µg/mL (≈ 26.7 µM); zone of inhibition at 50000 µg/mL [5]: 15 mm; MIC [8]: 1 µg/mL (≈ 2.67 µM); zone of inhibition at 50000 µg/mL [9]: 10 mm
Cc1cc(C(C)(C)C)c(O)c(C(C)(C)C)c1		90.4%				
CS(=O)(=O)c1cccc(-c2ccc(C(=O)c3cc4cc(-c5cccc(S(C)(=O)=O)c5)ccc4o3)cc2)c1	inactive	12.3%				zone of inhibition at 50000 µg/mL [1]: 16 mm; zone of inhibition at 50000 µg/mL [2]: 0 mm; MIC [3]: 500 µg/mL (≈ 942 µM); MIC [4]: 500 µg/mL (≈ 942 µM); zone of inhibition at 50000 µg/mL [5]: 0 mm; zone of inhibition at 50000 µg/mL [9]: 6 mm
CCOc1ccccc1-c1ccc(C(O)c2cc3cc(-c4ccccc4OCC)ccc3o2)cc1 (stereo not given)	inactive	19.3%	inactive	inactive	inactive	
O=C(c1ccc(Br)cc1)c1cc2cc(Br)ccc2o1		11.7%				zone of inhibition at 50000 µg/mL [1]: 24 mm; MIC [13]: 50 µg/mL (≈ 132 µM); zone of inhibition at 50000 µg/mL [2]: 17 mm; MIC [3]: 50 µg/mL (≈ 132 µM); MIC [4]: 50 µg/mL (≈ 132 µM); zone of inhibition at 50000 µg/mL [5]: 23 mm; MIC [8]: 50 µg/mL (≈ 132 µM); zone of inhibition at 50000 µg/mL [9]: 15 mm
CCOc1ccccc1-c1ccc(C(O)(CC)c2cc3cc(-c4ccccc4OCC)ccc3o2)cc1 (stereo not given)	inactive	5.5%	inactive	inactive	inactive	
CCc1ccc(-c2ccc(C(O)(c3cc4cc(-c5ccc(CC)cc5)ccc4o3)C(C)C)cc2)cc1 (stereo not given)	inactive	34.7%	inactive	inactive	inactive	
O=[N+]([O-])c1cccc(-c2ccc(C(O)c3cc4cc(-c5cccc([N+](=O)[O-])c5)ccc4o3)cc2)c1 (stereo not given)	inactive	19.9%				zone of inhibition at 50000 µg/mL [1]: 6 mm; zone of inhibition at 50000 µg/mL [2]: 0 mm; MIC [3]: 500 µg/mL (≈ 1070 µM); zone of inhibition at 50000 µg/mL [5]: 6 mm; MIC [8]: 500 µg/mL (≈ 1070 µM); zone of inhibition at 50000 µg/mL [9]: 0 mm
CS(=O)(=O)c1cccc(-c2ccc(C(O)c3cc4cc(-c5cccc(S(C)(=O)=O)c5)ccc4o3)cc2)c1 (stereo not given)	inactive	39.8%				
CCOc1ccccc1-c1ccc(C(O)(Cc2ccccc2)c2cc3cc(-c4ccccc4OCC)ccc3o2)cc1 (stereo not given)	inactive	16.4%	inactive	inactive	inactive	
CC(=O)c1ccccc1-c1ccc(C(=O)c2cc3cc(-c4ccccc4C(C)=O)ccc3o2)cc1	inactive	19%				zone of inhibition at 50000 µg/mL [1]: 10 mm; zone of inhibition at 50000 µg/mL [2]: 0 mm; MIC [3]: 100 µg/mL (≈ 218 µM); zone of inhibition at 50000 µg/mL [5]: 8 mm; MIC [8]: 100 µg/mL (≈ 218 µM); zone of inhibition at 50000 µg/mL [9]: 0 mm
CCOc1ccccc1-c1ccc(C(=O)c2cc3cc(-c4ccccc4OCC)ccc3o2)cc1	inactive	16.1%	inactive	inactive	inactive	
O=C(c1ccc(-c2ccccc2F)cc1)c1cc2cc(-c3ccccc3F)ccc2o1	inactive	18.7%	inactive	inactive	inactive	
CCc1ccc(-c2ccc(C(O)(c3cc4cc(-c5ccc(CC)cc5)ccc4o3)C(C)(C)C)cc2)cc1 (stereo not given)	inactive	24.2%	inactive	inactive	inactive	
CCOc1ccccc1-c1ccc(C(O)(c2cc3cc(-c4ccccc4OCC)ccc3o2)C(C)C)cc1 (stereo not given)	inactive	11.4%	inactive	inactive	inactive	
CC(C)C(O)(c1ccc(-c2ccccc2)cc1)c1cc2cc(-c3ccccc3)ccc2o1 (stereo not given)	inactive	52.3%	inactive	inactive	inactive	

Compound	growth inhibition (GI) [6]	Activity [7]	growth inhibition (GI) [10]	growth inhibition (GI) [11]	growth inhibition (GI) [12]	other results
CCOc1ccccc1-c1ccc(C(O)(c2cc3cc(-c4ccccc4OCC)ccc3o2)C(C)(C)C)cc1 (stereo not given)	inactive	21.2%	inactive	inactive	inactive	
CCc1ccc(-c2ccc(C(O)(CC)c3cc4cc(-c5ccc(CC)cc5)ccc4o3)cc2)cc1 (stereo not given)	inactive	55.2%	inactive	inactive	inactive	
CCc1ccc(-c2ccc(C(O)c3cc4cc(-c5ccc(CC)cc5)ccc4o3)cc2)cc1 (stereo not given)	inactive	55.7%	inactive	inactive	inactive	
O=C(c1ccc(-c2cccc([N+](=O)[O-])c2)cc1)c1cc2cc(-c3cccc([N+](=O)[O-])c3)ccc2o1	inactive	19.5%				zone of inhibition at 50000 µg/mL [1]: 7 mm; zone of inhibition at 50000 µg/mL [2]: 0 mm; MIC [3]: 50 µg/mL (≈ 108 µM); zone of inhibition at 50000 µg/mL [5]: 0 mm; zone of inhibition at 50000 µg/mL [9]: 0 mm
CC1(C)S[C@@H]2[C@H](NC(=O)[C@H](N)c3ccccc3)C(=O)N2[C@H]1C(=O)O [AMPICILLIN]						zone of inhibition at 50000 µg/mL [1]: 15 mm; zone of inhibition at 50000 µg/mL [2]: 20 mm; zone of inhibition at 50000 µg/mL [5]: 16 mm; zone of inhibition at 50000 µg/mL [9]: 0 mm
CCc1ccc(-c2ccc(C(=O)c3cc4cc(-c5ccc(CC)cc5)ccc4o3)cc2)cc1	inactive	17.3%				
CCc1ccc(-c2ccc(C(O)(Cc3ccccc3)c3cc4cc(-c5ccc(CC)cc5)ccc4o3)cc2)cc1 (stereo not given)	inactive	60.3%	inactive	inactive	inactive	
OC(Cc1ccccc1)(c1ccc(-c2ccccc2)cc1)c1cc2cc(-c3ccccc3)ccc2o1 (stereo not given)	inactive	30.5%	inactive	inactive	inactive	
OC(c1ccc(-c2ccccc2)cc1)c1cc2cc(-c3ccccc3)ccc2o1 (stereo not given)	inactive	79.5%	inactive	inactive	inactive	
NYSTATIN						inhibition zone (IZ) [1]: 0 mm; inhibition zone (IZ) [2]: 0 mm; inhibition zone (IZ) [5]: 0 mm
CC(C)(C)C(O)(c1ccc(-c2ccccc2)cc1)c1cc2cc(-c3ccccc3)ccc2o1 (stereo not given)	inactive	18.8%	inactive	inactive	inactive	
OC(c1ccc(-c2ccccc2F)cc1)c1cc2cc(-c3ccccc3F)ccc2o1 (stereo not given)	inactive	21.3%	inactive	inactive	inactive	zone of inhibition at 50000 µg/mL [1]: 6 mm; zone of inhibition at 50000 µg/mL [2]: 0 mm; MIC [3]: 50 µg/mL (≈ 121 µM); zone of inhibition at 50000 µg/mL [5]: 0 mm; zone of inhibition at 50000 µg/mL [9]: 0 mm
N#Cc1ccc(Cl)c(-c2ccc(C(=O)c3cc4cc(-c5cc(C#N)ccc5Cl)ccc4o3)cc2)c1	inactive	15.8%	inactive	inactive	inactive	
CCC(O)(c1ccc(-c2ccccc2)cc1)c1cc2cc(-c3ccccc3)ccc2o1 (stereo not given)	inactive	12.9%	inactive	inactive	inactive	
C=Cc1ccc(-c2ccc(C(=O)c3cc4cc(-c5ccc(C=C)cc5)ccc4o3)cc2)cc1	inactive	33.7%				zone of inhibition at 50000 µg/mL [1]: 16 mm; zone of inhibition at 50000 µg/mL [2]: 0 mm; MIC [3]: 50 µg/mL (≈ 117 µM); MIC [4]: 500 µg/mL (≈ 1170 µM); zone of inhibition at 50000 µg/mL [5]: 10 mm; MIC [8]: 250 µg/mL (≈ 586 µM); zone of inhibition at 50000 µg/mL [9]: 6 mm
